Laboratory results published in article PMC10862539, “Chelation of Mitochondrial Iron as an Antiparasitic Strategy” (ACS Infectious Diseases, 2024).
Like-named read-outs stand apart in the source and are kept apart here. Each block holds one compound with its values, some of them ahead of it.

Tests used:
G. intestinalis = test: Drug sensitivity assay, G. intestinalis (flow cytometry); format: cell-based; conditions: Giardia duodenalis; reference compound; G. intestinalis; 24 h; read-out: control EC50
Method: (§1) All organisms were cultivated according to the conditions summarized in Table S2, which also includes strain specifications. Dose–response curves were obtained by their cultivation on 96 well plates in a 2-fold series dilution of the appropriate drug, in a total volume of 200 μL (with the exception of P. falciparum, where the total volume was 100 μL). Iron supplementation was achieved by mixing the compound with Fe-NTA in an equimolar ratio prior to setting up the experiment. Results were plotted and processed using Prism 8.0 (GraphPad Software). A two-tailed unpaired t-test was performed to assess the significance of the difference between mitoDFO with and without added iron. Selectivity was calculated as the ratio of the average EC50 value for human fibroblasts to the average EC50 value for the appropriate pathogen. All data were obtained from a minimum of three independent biological replicates.

murine macrophage [1] = test: Intracellular L. mexicana infection assay, macrophage population; format: cell-based, mouse; conditions: infected macrophages, 72 h treatment, read-out: EC50 infection assay murine macrophage
Method: (§2) Approximately 10 000 murine macrophages per well were seeded on 96 well plate, and a suspension of 60 000 L. mexicana GFP-expressing promastigotes was added to each well and left to infect the mammal cells for 72 h in a cultivation medium under the conditions described in Table S2. 2-fold dilution series starting with 100 μM of either mitoDFO, DFO, or Amphotericin B in a regular growth medium were added, and cultures were incubated for further 72 h in the same conditions. Macrophage cells were washed and resuspended in growth medium and detached by pipetting, and their concentration in each well was measured on a Guava EasyCyte 8HT flow cytometer (Luminex). The GFP signal of internalized L. mexicana amastigotes in each macrophage was detected using a 488 nm excitation laser and a 525/30 nm detector. Median fluorescence graphs were plotted, and EC50 values for both macrophages and intracellular L. mexicana were calculated using Prism 8.0 (GraphPad Software).

L. mexicana (amastigote) = test: Drug sensitivity assay, axenic L. mexicana amastigote (flow cytometry); format: cell-based, Leishmania mexicana
Method: as §1

A. castellanii = test: Drug sensitivity assay, A. castellanii (flow cytometry); format: cell-based, Acanthamoeba castellanii; conditions: Acanthamoeba castellanii; reference compound; A. castellanii; 96 h; read-out: control EC50
Method: as §1

N. fowleri = test: Drug sensitivity assay, N. fowleri (flow cytometry); format: cell-based; conditions: Naegleria fowleri; reference compound; N. fowleri; 72 h; read-out: control EC50
Method: as §1

[2] = test system: intracellular Leishmania mexicana amastigotes; test: Intracellular L. mexicana infection assay, GFP amastigotes in macrophages; format: cell-based; conditions: intracellular amastigotes, 72 h treatment, read-out: EC50 infection assay Leishmania mexicana
Method: as §2

L. major (promastigote) = test: Drug sensitivity assay, L. major promastigote (flow cytometry); format: cell-based; conditions: Leishmania major; reference compound; L. major (promastigote); 120 h; read-out: control EC50
Method: as §1

C. albicans = test: Drug sensitivity assay, C. albicans (OD600); format: cell-based, Candida albicans; conditions: Candida albicans; reference compound; C. albicans; 48 h; read-out: control EC50
Method: as §1

murine macrophage [3] = test: Murine macrophage axenic monoculture EC50; format: cell-based, mouse; conditions: axenic monoculture, read-out: EC50 axenic murine macrophage
C. neoformans = test: Drug sensitivity assay, C. neoformans (OD600); format: cell-based, Cryptococcus neoformans; conditions: Cryptococcus neoformans; reference compound; C. neoformans; 72 h; read-out: control EC50
Method: as §1

T. brucei 427 (BSF) = test: Drug sensitivity assay, T. brucei 427 bloodstream form (resazurine); format: cell-based, Trypanosoma brucei; conditions: Trypanosoma brucei
Method: as §1

P. falciparum = test: Drug sensitivity assay, P. falciparum (SYBR green I); format: cell-based, Plasmodium falciparum; conditions: Plasmodium falciparum, 48 h, read-out: control EC50
Method: as §1

B. divergens = test: Drug sensitivity assay, B. divergens in bovine erythrocytes (flow cytometry); format: cell-based, Babesia divergens; conditions: Babesia divergens, Erythrocyte; reference compound; B. divergens; 48 h; read-out: control EC50
Method: as §1

T. gambiense (BSF) = test: Drug sensitivity assay, T. gambiense bloodstream form (resazurine); format: cell-based, Trypanosoma gambiense; conditions: Trypanosoma brucei; reference compound; T. gambiense (BSF); 72 h; read-out: control EC50
Method: as §1

T. brucei STIB (BSF) = test: Drug sensitivity assay, T. brucei STIB bloodstream form (resazurine); format: cell-based, Trypanosoma brucei; conditions: Trypanosoma brucei; reference compound; T. brucei STIB (BSF); 72 h; read-out: control EC50
Method: as §1

SMILES: O=C(Cn1ccnc1[N+](=O)[O-])NCc1ccccc1 [benznidazole]
EC50 (G. intestinalis): 2600 ± 1400 nM

SMILES: C[C@@H]1[C@H](O)[C@@H](C)/C=C/C=C/C=C/C=C/C=C/C=C/C=C/[C@H](O[C@@H]2O[C@H](C)[C@@H](O)[C@H](N)[C@@H]2O)C[C@@H]2O[C@](O)(C[C@@H](O)C[C@@H](O)[C@H](O)CC[C@@H](O)C[C@@H](O)CC(=O)O[C@H]1C)C[C@H](O)[C@H]2C(=O)O [AmpB, amphotericin B, reference compound]
EC50 (murine macrophage [1]; Mus musculus, Macrophage): 29100 ± 5910 nM | EC50 (L. mexicana (amastigote); Leishmania mexicana, axenic monoculture, read-out: EC50 axenic Leishmania mexicana): 330 ± 80 nM | EC50 (L. mexicana (amastigote); Leishmania mexicana, reference compound, L. mexicana (amastigote), 120 h, read-out: control EC50): 320 ± 35 nM | EC50 (A. castellanii): 8100 ± 1600 nM | EC50 (N. fowleri): 69 ± 9 nM | EC50 ([2]; Leishmania mexicana, Macrophage): 3770 ± 400 nM | EC50 (L. major (promastigote)): 24 ± 8 nM | EC50 (C. albicans): 1500 ± 100 nM | EC50 (murine macrophage [3]; Mus musculus, Macrophage): > 25000 nM | EC50 (C. neoformans): 200 ± 100 nM

SMILES: O=C1C(O)=C([C@H]2CC[C@H](c3ccc(Cl)cc3)CC2)C(=O)c2ccccc21 [atovaquone, reference compound]
EC50 (B. divergens): 8 ± 1 nM

SMILES: CN(C)CCOc1ccc(/C(=C(/CCCCCCCCCC[P+](c2ccccc2)(c2ccccc2)c2ccccc2)c2ccccc2)c2ccccc2)cc1 [MitoTam]
EC50 (murine macrophage [1]): 260 nM | EC50 (L. mexicana (amastigote); axenic monoculture, read-out: EC50 axenic Leishmania mexicana): 350 nM | EC50 [2]: ~100 nM | EC50 (murine macrophage [3]): 390 nM

The remaining lines, values ahead:

EC50 (T. brucei 427 (BSF); T. brucei 427, comparison drug in text, read-out: EC50): 4840 nM
SMILES: CSc1ccc(OCc2ncc([N+](=O)[O-])n2C)cc1 [fexinidazole]

EC50 (P. falciparum): 15 ± 1 nM
SMILES: CCN(CC)CCCC(C)Nc1ccnc2cc(Cl)ccc12 (stereo not drawn) [chloroquine, reference compound]

EC50 (T. gambiense (BSF)): 2 ± 0.5 nM | EC50 (T. brucei STIB (BSF)): 1 ± 0.4 nM | EC50 (T. brucei 427 (BSF); reference compound, T. brucei 427 (BSF), 72 h, read-out: control EC50): 7 ± 1 nM
SMILES: N=C(N)c1ccc(OCCCCCOc2ccc(C(=N)N)cc2)cc1 [pentamidine]
